“And” between values parts separate entries of the source, which are not always exact repeats. Equal values may be shown once. Read-outs that look alike come from different tables or passages of the source.
Legend:
[1] = test system: U87 human glioblastoma cell line; assay: MTT cytotoxicity assay, U87 glioblastoma cells; format: cell-based
Description: (§1) The cytotoxicity assay of various compounds against human brain tumor cell lines was performed using the MTT (3-[4,5-dimethylthiazol-2-yl]-2,5-diphenyl tetrazolium bromide) assay (Boehringer Mannheim Corp., Indianapolis, Ind.). Briefly, exponentially growing brain tumor cells were seeded into a 96-well plate at a density of 2.5×10^4 cells/well and incubated for 36 hours at 37° C. prior to drug exposure. […] Triplicate wells were used for each treatment.
(§2) The cells were incubated with the various compounds for 24-36 hours at 37° C. in a humidified 5% CO2 atmosphere. To each well, 10 μl of MTT (0.5 mg/ml final concentration) was added and the plates were incubated at 37° C. for 4 hours to allow MTT to form formazan crystals by reacting with metabolically active cells. The formazan crystals were solubilized overnight at 37° C. in a solution containing 10% SDS in 0.01 M HCl. The absorbence of each well was measured in a microplate reader (Labsystems) at 540 nm and a reference wavelength of 690 nm. To translate the OD540 values into the number of live cells in each well, the OD540 values were compared to those on standard OD540—versus—cell number curves generated for each cell line. The percent survival was calculated using the formula: [formula]
(§3) The IC50 values were calculated by non linear regression analysis.
Apoptosis was also evaluated using the nick-end-labeling assay, as described for Example 3.

U373 glioblastoma cells = assay: Uptake and internalization by immunofluorescence and confocal microscopy; format: cell-based, human; conditions: 5 μg/ml
Description: At the end of the incubation, cells were washed twice with PBS and fixed in 2% paraformaldehyde. The cells were permeabilized and non-specific binding sites were blocked with 2.5% BSA in PBS containing 0.1% Triton X-100 for 30 minutes. […] After rinsing with PBS, cells were incubated for 1 hour with a mixture of a goat anti-mouse IgG antibody conjugated to FITC (Amersham Corp., Arlington Heights, Ill.) and donkey anti-rabbit IgG conjugated to Texas Red (Amersham Corp.) at a dilution of 1:40 in PBS. Similarly, tubulin expression was examined by immunofluorescence using a monoclonal antibody against α-tubulin (Sigma Chemical Co, St. Louis, Mo.) at a dilution of 1:1000 and an anti-mouse IgG conjugated to FITC. Cells were washed in PBS and counterstained with toto-3 (Molecular Probes Inc., Eugene, Oreg.) for 10 minutes at a dilution of 1:1000. Cells were washed again with PBS and the coverslips were mounted with Vectashield (Vector Labs, Burlingame, Calif.) and viewed with a confocal microscope (Bio-Rad MRC 1024) mounted in a Nikon Labhophot upright microscope.

[2] = test system: U373 human glioblastoma cells; assay: SCID mouse xenograft model of human glioblastoma; conditions: for in vivo anti-tumor activity / tumor-free survival (in words): daily i.p. doses for 10 days starting the day after inoculation
Description: The right hind legs of the CB. 17 SCID mice were inoculated subcutaneously (s.c.) with 0.5×10^6 U373 human glioblastoma cells in 0.2 mL PBS. […] Daily treatments with PBS, unconjugated EGF (1 mg/kg/dose), and unconjugated WHI-P154 (1 mg/kg/dose) were used as controls. Mice were monitored daily for health status and tumor growth, and were sacrificed if they became moribund developed tumors which impeded their ability to attain food or water, at the end of the 3-month observation period. Tumors were measured using Vernier calipers twice weekly, and the tumor volumes were calculated according to the following formula (Friedman, S. H., mDolan, M. E., Pegg, A. E., Marcelli, S., Keir, S., Catino, J. J., Binger, D. D., Schold, S. C., Jr., 1995, Cancer Res., 55:2853-2857): [formula]
For histopathologic studies, tissues were fixed in 10% neutral buffered formalin, dehydrated, and embedded in paraffin by routine methods. Glass slides with affixed 6 micron tissue sections were prepared and stained with hematoxylin/eosin. Primary endpoints of interest were tumor growth and tumor-free survival outcome. Estimation of life table outcome and comparisons of outcome between groups were done, as previously reported (Waurzyniak, et al., 1997, Clinical Cancer Research 3:881-890; Anderson, et al., 1995, Cancer Res. 55:1321-1327; Uckun, et al., 1997, J. Clin. Oncol. 15:2214-2221).

glioblastoma cells = assay: In situ apoptosis assay (TdT-mediated dUTP nick-end labeling); format: cell-based, human; conditions: 36 hours after treatment; FIGS. 6D and 6E
Description: After a 36 hour incubation at 37° C. in a humidified 5% CO2 incubator, the supernatants were carefully aspirated and the cells were treated for 1-2 minutes with 0.1% trypsin. The detached cells were collected into a 15 ml centrifuge tube, washed with medium and pelleted by centrifugation at 1000 rpm for 5 minutes. Cells were resuspended in 50 μl of PBS, transferred to poly-L-lysine coated coverslips and allowed to attach for 15 minutes. The cells were washed once with PBS and incubated with equilibration buffer for 10 minutes at room temperature.
After removal of the equilibration buffer, cells were incubated for 1 hour at 37° C. with the reaction mixture containing terminal deoxynucleotidyl transferase (TdT) and […] for labeling of exposed 3′-hydroxyl ends of fragmented nuclear DNA. The cells were washed with PBS and incubated with anti-digoxigenin antibody conjugated to FITC for 1 hour at room temperature to detect the incorporated dUTP. After washing the cells with PBS, the coverslips were mounted onto slides with Vectashield containing propidium iodide (Vector Labs, Burlingame, Calif.) and viewed with a confocal laser scanning microscope. […] In control reactions, the TdT enzyme was omitted from the reaction mixture.

U373 glioma cells = assay: Morphology by anti-α-tubulin / TOTO-3 immunofluorescence; format: cell-based, human; conditions: 25 μg/ml, 24 hours
Description: Cells were fixed in paraformaldehyde, immunostained with monoclonal antibody to EGF-R (green fluorescence) and counterstained with TOTO-3 (blue fluorescence) The immunostained cells were analyzed with a laser scanning confocal microscope. Blue fluorescence represents nuclei.
Immunofluorescence was used to (i) examine the surface expression of EGF-receptor (EGF-R) on brain tumor cells, (ii) evaluate the uptake of EGF-P154 by brain tumor cells and (iii) examine the morphologic features of EGF-P154 treated brain tumor cells.
At the end of the incubation, cells were washed twice with PBS and fixed in 2% paraformaldehyde. The cells were permeabilized and non-specific binding sites were blocked with 2.5% BSA in PBS containing 0.1% Triton X-100 for 30 minutes. […] After rinsing with PBS, cells were incubated for 1 hour with a mixture of a goat anti-mouse IgG antibody conjugated to FITC (Amersham Corp., Arlington Heights, Ill.) and donkey anti-rabbit IgG conjugated to Texas Red (Amersham Corp.) at a dilution of 1:40 in PBS. Similarly, tubulin expression was examined by immunofluorescence using a monoclonal antibody against α-tubulin (Sigma Chemical Co, St. Louis, Mo.) at a dilution of 1:1000 and an anti-mouse IgG conjugated to FITC. Cells were washed in PBS and counterstained with toto-3 (Molecular Probes Inc., Eugene, Oreg.) for 10 minutes at a dilution of 1:1000. […]

[3] = test system: U373 human glioblastoma cell line; assay: MTT cytotoxicity assay, U373 glioblastoma cells; conditions: U373
Description: as §1
Human glioblastoma cell line U373 was obtained from American. Type Culture Collection (Rockville, Md.) and maintained as a continuous cell line in Dulbecco's modified Eagles's medium supplemented with 10% fetal bovine serum and antibiotics. The B-lineage acute lymphoblastic leukemia cell line Nalm-6 was used as a negative control.
as §2, §3

NALM-6 leukemia cells = assay: MTT cytotoxicity assay, EGF-R negative leukemia cells (negative control line); format: cell-based
Description: Triplicate wells were used for each treatment.
Human glioblastoma cell line U373 was obtained from American.
The percent survival was calculated using the formula: [formula]

U373 cells = assay: EGF-stimulated cell adhesion to poly-L-lysine coated plates; format: cell-based, human; conditions: stimulation with 250 ng/ml EGF, baseline 33.2±5.2%, P<0.02
Description: To study the effects of quinazoline derivatives on EGF-stimulated cell adhesion, the trypsinized and recovered cells were incubated with varying concentrations ranging from 1 μM to 50 μM of quinazolines for 4 hours at 37° C., then stimulated with 250 ng/ml of EGF and examined for their ability to adhere to poly-L-lysine coated plates.
For the EGF stimulation experiments, the cells were plated in the presence of 250 ng/ml of EGF and allowed to adhere for 1 hour. The non-adherent cells were removed by gently washing the cells with PBS and then the adherent fraction was quantitated as described above for Example 6.

[4] = read-out: IC50 value derived from the composite cell survival curve
[5] = 500 μg/kg/day×10 days i.p., 5 mice

## EGF-P154: WHI-P154 attached to recombinant human EGF by photochemical conjugation with the crosslinking agent Sulfo-SANPAH
[1]; 3 independent experiments, FIG. 5A, read-out: mean IC50 value
  IC50: 620 ± 97 nM
[1]; 3 independent experiments, read-out: range of IC50 values
  IC50: 487 to 761 nM
[1]; [4]
  IC50: 601 nM
U373 glioblastoma cells
  time at which internalized complexes were detected in the perinuclear region: ≤ 30 min
[2]; 500 μg/kg/day dose level, P=0.0003
  average size (mean±SE) of tumors at 40 days: 37.6±10.7 mm^3
[2]; 500 μg/kg/day dose level, P=0.002
  average size (mean±SE) of tumors at 20 days: 1.0±1.1 mm^3
[2]; 500 μg/kg/day×10 days
  delay in reaching the 50 mm^3 tumor size versus control mice (PBS, EGF, or WHI-P154): approximately 11 days
[2]; 500 μg/kg/day×10 days i.p.
  time at which tumors reached a size of 50 mm^3: 47.4 ± 7.1 days
[2]; [5]
  median tumor-free survival: 33 days
  time within which all mice developed tumors: ≤ 40 days
[2]; 1 mg/kg/day, 10 consecutive days
  mice alive and free of detectable tumors for >58 days: 40%
[2]; 1 mg/kg/day×10 days, 53.2 nmol vs 2.9 nmol of WHI-P154
  enhancement of in vivo anti-tumor activity of WHI-P154 by conjugation to EGF: > 8 fold
[2]; 1 mg/kg/day×10 days, 58-day observation period
  tumor size in the remaining 60% of the mice: ≤ 50 mm^3
[2]; 0.5 and 1 mg/kg/day×10 days i.p.
  toxicity of the applied dose levels (in words): nontoxic
[2]
  in vivo anti-tumor activity / tumor-free survival (in words): significantly improved tumor-free survival in a dose-dependent fashion
[2]; listed as EGF-P54
  in vivo anti-tumor activity / tumor-free survival (in words): significant in vivo anti-tumor activity
Glioblastoma cells
  apoptotic nuclei by digoxigenin-dUTP incorporation (in words): many apoptotic yellow nuclei
U373 glioma cells
  morphologic changes (in words): complete disruption of microtubules, marked shrinkage, nuclear fragmentation and inability to adhere to the substratum
[3]; [4]
  IC50: 881 nM
[3]; read-out: mean IC50 value, 3 independent experiments, FIG. 5A
  IC50: 813 nM and 811 nM
[3]; read-out: range of IC50 values, 3 independent experiments
  IC50: 588 to 950 nM
NALM-6 leukemia cells
  cytotoxicity against EGF-R negative leukemia cells (in words): selective cytotoxicity to EGF-R positive glioblastoma cell lines only

## EGF: Recombinant human EGF produced in E. coli; used unconjugated as control and as adhesion stimulus
[2]; 1 mg/kg/day×10 days i.p.
  time at which tumors reached a size of 50 mm^3: 34.0 ± 3.0 days
[2]; 1 mg/kg/day×10 days i.p., N=5
  median tumor-free survival: 23 days
[2]
  in vivo anti-tumor activity / tumor-free survival (in words): inability
U373 cells
  fraction capable of adhering to poly-L-lysine coated plates: 58.48±4.7%

Reference: patent US6552027B2, “Quinazolines for treating brain tumor” (Parker Hughes Institute, priority 1998, dated 2003)
